In ChEMBL document CHEMBL1151510, “Inhibition of matrix metalloproteinases by P1 substituted N-carboxyalkyl dipeptides” (Bioorg Med Chem Lett, 1996):

Tests used:
Interstitial collagenase [1] = target: T1, Interstitial collagenase (Homo sapiens, UniProt P03956); assay: Inhibition of matrix metalloprotease -1.
T1 sequence (P03956 whole entry): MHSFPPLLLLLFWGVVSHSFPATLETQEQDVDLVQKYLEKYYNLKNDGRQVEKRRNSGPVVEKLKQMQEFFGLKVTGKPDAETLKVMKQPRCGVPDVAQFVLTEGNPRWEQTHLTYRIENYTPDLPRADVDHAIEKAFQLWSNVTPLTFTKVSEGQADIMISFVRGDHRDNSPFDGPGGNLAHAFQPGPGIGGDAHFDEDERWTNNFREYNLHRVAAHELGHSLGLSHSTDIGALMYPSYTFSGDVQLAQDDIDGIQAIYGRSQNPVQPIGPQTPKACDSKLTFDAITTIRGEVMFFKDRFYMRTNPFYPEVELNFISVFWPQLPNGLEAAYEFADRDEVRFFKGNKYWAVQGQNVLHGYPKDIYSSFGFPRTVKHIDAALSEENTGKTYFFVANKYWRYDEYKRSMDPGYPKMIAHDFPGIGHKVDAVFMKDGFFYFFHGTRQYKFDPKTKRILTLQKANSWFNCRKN

Stromelysin-1 [2] = target: T2, Stromelysin-1 (Homo sapiens, UniProt P08254)
T2 sequence (P08254 whole entry): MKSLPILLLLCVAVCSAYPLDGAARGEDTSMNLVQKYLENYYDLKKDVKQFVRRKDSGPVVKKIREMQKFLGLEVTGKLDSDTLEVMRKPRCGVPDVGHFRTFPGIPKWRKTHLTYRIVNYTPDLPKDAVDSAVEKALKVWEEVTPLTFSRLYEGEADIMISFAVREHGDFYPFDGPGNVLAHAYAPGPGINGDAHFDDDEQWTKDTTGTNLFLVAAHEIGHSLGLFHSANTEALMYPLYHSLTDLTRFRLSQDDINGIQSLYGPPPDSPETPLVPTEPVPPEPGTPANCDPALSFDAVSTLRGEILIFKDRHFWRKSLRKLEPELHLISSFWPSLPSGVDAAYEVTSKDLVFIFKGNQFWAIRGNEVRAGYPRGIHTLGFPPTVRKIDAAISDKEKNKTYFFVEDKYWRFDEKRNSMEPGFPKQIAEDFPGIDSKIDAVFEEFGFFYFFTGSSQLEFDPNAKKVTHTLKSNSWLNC

[3] = target: T3, 72 kDa type IV collagenase (Homo sapiens, UniProt P08253); assay: Inhibition of matrix metalloprotease-2 at 1 uM.
Target sequence in this assay (P08253 110-660 limits assumed): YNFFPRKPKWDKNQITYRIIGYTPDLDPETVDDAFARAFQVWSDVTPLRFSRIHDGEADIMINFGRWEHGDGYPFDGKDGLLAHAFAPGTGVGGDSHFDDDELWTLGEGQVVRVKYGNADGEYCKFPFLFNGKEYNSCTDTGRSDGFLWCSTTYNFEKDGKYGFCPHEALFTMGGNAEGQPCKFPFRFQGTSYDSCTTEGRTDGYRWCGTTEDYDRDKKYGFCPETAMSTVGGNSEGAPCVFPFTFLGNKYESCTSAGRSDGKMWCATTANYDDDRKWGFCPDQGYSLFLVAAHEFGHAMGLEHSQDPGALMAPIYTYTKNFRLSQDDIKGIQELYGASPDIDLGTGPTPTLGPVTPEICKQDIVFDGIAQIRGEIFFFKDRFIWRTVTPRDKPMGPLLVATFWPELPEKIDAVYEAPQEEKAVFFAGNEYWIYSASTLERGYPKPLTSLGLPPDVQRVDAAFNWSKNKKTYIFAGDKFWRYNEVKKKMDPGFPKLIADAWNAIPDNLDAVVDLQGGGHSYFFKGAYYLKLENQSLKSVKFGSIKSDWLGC

[4] = target: T3, 72 kDa type IV collagenase; assay: Inhibition of MMP-2.
Target sequence in this assay (P08253 whole entry): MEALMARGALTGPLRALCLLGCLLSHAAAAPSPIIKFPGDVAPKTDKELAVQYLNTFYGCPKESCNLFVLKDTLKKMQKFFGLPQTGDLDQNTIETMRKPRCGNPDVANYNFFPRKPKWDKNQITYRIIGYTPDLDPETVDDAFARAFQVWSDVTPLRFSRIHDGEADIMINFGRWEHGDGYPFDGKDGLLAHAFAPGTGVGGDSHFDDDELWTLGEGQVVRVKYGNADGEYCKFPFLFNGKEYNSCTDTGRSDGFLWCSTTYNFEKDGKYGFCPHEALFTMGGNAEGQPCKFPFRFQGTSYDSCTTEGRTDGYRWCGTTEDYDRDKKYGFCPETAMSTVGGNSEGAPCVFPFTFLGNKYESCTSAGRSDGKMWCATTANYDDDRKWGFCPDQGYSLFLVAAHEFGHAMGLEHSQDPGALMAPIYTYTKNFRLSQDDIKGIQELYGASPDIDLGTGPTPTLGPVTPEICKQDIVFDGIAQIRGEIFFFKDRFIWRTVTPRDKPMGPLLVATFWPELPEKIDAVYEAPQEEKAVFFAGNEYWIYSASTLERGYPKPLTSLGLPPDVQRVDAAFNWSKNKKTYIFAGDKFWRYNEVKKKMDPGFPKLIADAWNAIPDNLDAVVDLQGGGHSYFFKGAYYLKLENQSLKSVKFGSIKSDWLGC

[5] = target: T4, Interstitial collagenase (Homo sapiens) (UniProt P03956); assay: Inhibition of matrix metalloprotease-1 at 10 uM
T4 sequence (whole entry): T1 sequence (P03956 whole entry)

Interstitial collagenase [6] = target: T1, Interstitial collagenase; assay: Inhibition of matrix metalloprotease -1
[7] = target: T3, 72 kDa type IV collagenase; assay: Inhibition of matrix metalloprotease-2
Target sequence in this assay (P08253 whole entry): as above

Stromelysin-1 [8] = target: T2, Stromelysin-1; assay: Inhibition of matrix metalloprotease -3
[9] = target: T3, 72 kDa type IV collagenase; assay: Inhibition of matrix metalloprotease-2 at 1 uM
Target sequence in this assay (P08253 110-660 limits assumed): as the sequence (P08253 110-660 limits assumed) above

SMILES | Ki (Interstitial collagenase [1]) [nM] | Ki (Stromelysin-1 [2]) [nM] | inhibition [3] [%] | Ki [4] [nM] | further results
CC(C)C[C@H](NC(=O)[C@H](CCc1ccccc1)N[C@H](CCCCNC(=O)CCc1ccccc1)C(=O)O)C(=O)Nc1ccccc1 | 13000 | 190 | 49 |  | 
CCCCCC[C@@H](N[C@@H](CCc1ccccc1)C(=O)N[C@@H](CC(C)C)C(=O)Nc1ccccc1)C(=O)O |  | 530 |  | 2300 | inhibition [5]: 43%
CCCC[C@@H](N[C@@H](CCc1ccccc1)C(=O)N[C@@H](CC(C)C)C(=O)Nc1ccccc1)C(=O)O | 6800 | 320 |  | 1100 | 
CC(C)C[C@H](NC(=O)[C@H](CCc1ccccc1)N[C@H](CCNC(=O)Cc1ccccc1)C(=O)O)C(=O)Nc1ccccc1 | 1790 | 130 |  |  | 
CNC(=O)[C@H](Cc1ccccc1)NC(=O)[C@H](CC(C)C)N[C@H](CCN1C(=O)c2cc3ccccc3cc2C1=O)C(=O)O |  |  |  |  | Ki (Interstitial collagenase [6]): 5 nM; Ki [7]: 91 nM; Ki (Stromelysin-1 [8]): 20 nM
CC(C)C[C@H](NC(=O)[C@H](CCc1ccccc1)N[C@H](CCNC(=O)CCCc1ccccc1)C(=O)O)C(=O)Nc1ccccc1 | 4410 | 270 |  | 770 | 
CC(=O)N1CCCC1C(=O)NCCCC[C@@H](N[C@@H](CCc1ccccc1)C(=O)N[C@@H](CC(C)C)C(=O)Nc1ccccc1)C(=O)O (stereo partly drawn) | 1100 | 180 | 91 |  | 
CC(C)C[C@H](NC(=O)[C@H](CCc1ccccc1)N[C@H](CCCNC(=O)c1ccccc1)C(=O)O)C(=O)Nc1ccccc1 |  | 270 | 50 |  | inhibition [5]: 50%
CC(C)C[C@H](NC(=O)[C@H](CCc1ccccc1)N[C@H](CCCN1C(=O)c2ccccc2C1=O)C(=O)O)C(=O)Nc1ccccc1 | 3400 | 140 |  | 570 | 
CC(C)C[C@H](NC(=O)[C@H](CCc1ccccc1)N[C@H](CCNC(=O)c1ccccc1)C(=O)O)C(=O)Nc1ccccc1 | 1090 | 120 |  |  | inhibition [9]: 72%
CC[C@@H](N[C@@H](CCc1ccccc1)C(=O)N[C@@H](CC(C)C)C(=O)Nc1ccccc1)C(=O)O | 1800 | 350 |  | 1100 | 
CC(C)C[C@H](NC(=O)[C@H](CCc1ccccc1)N[C@H](CCCCc1ccccc1)C(=O)O)C(=O)Nc1ccccc1 | 72 | 120 | 64 |  | 

The next lines start with results.

Ki (Interstitial collagenase [1]) [nM] | Ki (Stromelysin-1 [2]) [nM] | inhibition [3] [%] | Ki [4] [nM] | SMILES | further results
720 | 8 |  | 86 | CC(C)C[C@H](NC(=O)[C@H](CCc1ccccc1)N[C@H](CCCCN1C(=O)c2ccccc2C1=O)C(=O)O)C(=O)Nc1ccccc1 | 
7200 | 28 |  | 70 | CC(C)C[C@H](NC(=O)[C@H](CCc1ccccc1)N[C@H](CCCCNC(=O)Cc1ccccc1)C(=O)O)C(=O)Nc1ccccc1 | 
5800 | 32 |  | 120 | CC(C)C[C@H](NC(=O)[C@H](CCc1ccccc1)N[C@H](CCCCNC(=O)c1ccccc1)C(=O)O)C(=O)Nc1ccccc1 | 
2090 | 33 |  | 20 | CC(C)C[C@H](NC(=O)[C@H](CCc1ccccc1)N[C@H](CCN1C(=O)c2ccccc2C1=O)C(=O)O)C(=O)Nc1ccccc1 | 
870 | 10 |  | 60 | CC(C)C[C@H](NC(=O)[C@H](CCc1ccccc1)N[C@H](CCCNC(=O)Cc1ccccc1)C(=O)O)C(=O)Nc1ccccc1 | 
5810 | 47 |  | 350 | CC(C)C[C@H](NC(=O)[C@H](CCc1ccccc1)N[C@H](CCCCCNC(=O)Cc1ccccc1)C(=O)O)C(=O)Nc1ccccc1 | 
3330 | 110 | 41 |  | CC(C)C[C@H](NC(=O)[C@H](CCc1ccccc1)N[C@H](CCNC(=O)CCc1ccccc1)C(=O)O)C(=O)Nc1ccccc1 | 
 | 120 | 70 |  | CC(C)C[C@H](NC(=O)[C@H](CCc1ccccc1)N[C@H](CCCNC(=O)CCCc1ccccc1)C(=O)O)C(=O)Nc1ccccc1 | inhibition [5]: 36%
2200 | 9.5 | 87 |  | CC(C)C[C@H](NC(=O)[C@H](CCc1ccccc1)N[C@H](CCCNC(=O)CCc1ccccc1)C(=O)O)C(=O)Nc1ccccc1 | 
1600 | 12 |  | 110 | CC(C)C[C@H](NC(=O)[C@H](CCc1ccccc1)N[C@H](CCCCN1Cc2ccccc2C1=O)C(=O)O)C(=O)Nc1ccccc1 | 
3890 | 20 |  | 120 | CC(C)C[C@H](NC(=O)[C@H](CCc1ccccc1)N[C@H](CCCCCNC(=O)c1ccccc1)C(=O)O)C(=O)Nc1ccccc1 | 
